Earlier results as cited in patent US20220331342A1, “TREATMENT OF TRAUMATIC ENCEPHALOPATHY BY FIBROBLASTS AND THERAPEUTIC ADJUVANTS” (FIGENE, LLC, priority 2019, published 2022).

Columns and labels:
[1] = tested on: mixed spinal cord (SC) cultures; settings: excitotoxins
SOD1 mutant mice = settings: single therapy

Row | SMILES | neuronal survival on treatment with MAPK inhibitors [1] | further results
1 | CN(C)c1ccc(O)c2c1C[C@H]1C[C@H]3[C@H](N(C)C)C(O)=C(C(N)=O)C(=O)[C@@]3(O)C(O)=C1C2=O [Minocycline, minocycline] | – | first-pass metabolism when absorbed from the human gastrointestinal tract: substantial first-pass metabolism
2 | COc1cccc(-c2cc(=O)c3ccccc3o2)c1N [PD98059] | not | –
3 | Nc1nc2ccc(OC(F)(F)F)cc2s1 [Riluzole, riluzole] | – | onset of disease (SOD1 mutant mice): without affecting
4 | C[S+]([O-])c1ccc(-c2nc(-c3ccncc3)c(-c3ccc(F)cc3)[nH]2)cc1 (stereo not shown) [SB203580] | increased neuronal survival | –
